Assay results: patent publication US10905702B2 (priority 2016, dated 2021)
Where two headings read alike, the source gives them in different places.

Key:
[1] = test system: SOCS1, SOCS3, SOCS4 expression in A549 cells; assay: SOCS expression in A549 cells incubated with rhGal3 with or without TDG (quantitative realtime PCR); type: cell-based, human
Protocol: A549 cells were grown in 12-well plates and incubated with 0˜30 μg/ml of rhGal3 for 1 hour. After washing, RNA was extracted from the cells and subjected to reverse-transcription, followed by quantitative realtime PCR with designed primers for SOCS1, SOCS3, SOCS4, and beta-actin. Ct values were calculated and the relative expression level was calculated as 2^(Ct actin−Ct target).

recombinant human Gal3 = target: T1, recombinant human Gal3 (Homo sapiens, UniProt P17931); assay: Inhibition of hGal3 binding to asialofetuin (microtiter plate); conditions: biotinylated rhGal3 5 ug/ml pre-mixed with inhibitor; TDG 5 mM; Lac 50 mM; FIG. 12
T1 construct: made in house; host or cells: Escherichia coli BL21 (DE3)
Protocol: Ninety-six well microtiter plates were coated with 1 ug/well of asialofetuin (10 μg/ml in PBS, 100 ul each well) for 3 h at 37° C., washed and blocked with 3% BSA in PBS overnight at 4° C. […] The reaction was stopped with 1 M HCl and the optical density (OD) at 450 nm from each well was measured by SpectraMax 340 plate reader (Molecular Device).

[2] = target: T2, rhGal3 binding onto A549 cells (Homo sapiens, UniProt P17931); assay: Flow cytometry of rhGal3 binding to A549 cells and its inhibition; type: cell-based
T2 construct: made in house; host or cells: Escherichia coli BL21 (DE3)

[3] = test system: ERK, AKT, p38 MAPK, STAT1 and NF-κB phosphorylation in A549 cells; type: cell-based, human
A549 cells = type: cell-based, human; conditions: for extracellular cytokine levels: A549 cells, treatment alone vs untreated cells, FIG. 7
SOCS1 = type: cell-based, human; conditions: 15 μg/ml, 1 h
RIG1 = type: cell-based, human
[4] = hGal3 10 μg/ml pre-mixed with 0~10 mM disaccharide
[5] = NeuK-treated A549 cells, 15 μg/ml
[6] = A549 cells pre-exposed to NeuK, 15 μg/ml
[7] = A549 cells, treatment alone, vs control

T2 sequence (P17931 whole entry): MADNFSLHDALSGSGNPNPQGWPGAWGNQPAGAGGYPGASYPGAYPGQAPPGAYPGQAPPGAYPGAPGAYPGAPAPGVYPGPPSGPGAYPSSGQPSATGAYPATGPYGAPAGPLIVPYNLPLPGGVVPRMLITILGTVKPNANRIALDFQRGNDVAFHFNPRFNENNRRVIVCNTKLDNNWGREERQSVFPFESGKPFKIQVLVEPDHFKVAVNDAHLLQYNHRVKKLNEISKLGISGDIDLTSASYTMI
T1 sequence (P17931 whole entry): as above

OC[C@H]1O[C@@H](S[C@@H]2O[C@H](CO)[C@H](O)[C@H](O)[C@H]2O)[C@H](O)[C@@H](O)[C@H]1O [TDG, thiodigalactoside]
SOCS expression (SOCS1, SOCS3, SOCS4) ([1]; 30 μg rhGal3 pre-mixed with TDG 50 mM, one hour, FIG. 17): offset all the galectin's effect in suppressing SOCS expression | SOCS expression ([1]; disaccharide (TDG 50 mM) alone, one hour): some positive effect in SOCS expression | inhibition of rhGal3 binding to asialofetuin (OD 450 nm) (recombinant human Gal3): partially inhibit | inhibition of hGal3 binding onto A549 cells (MFI) [2, 4]: inhibit the binding | inhibition of hGal3 binding onto A549 cells (MFI) ([2]; hGal3 pre-mixed with Lac 50 mM, TDG 50 mM or 10 mM): inhibit binding well

CC(=O)N[C@H]1C(O)O[C@H](CO)[C@H](O)[C@@H]1O[C@@H]1O[C@H](CO)[C@H](O)[C@H](O)[C@H]1O (stereo partly shown) [TF disaccharides, Galβ1,3GalNAc]
inhibition of hGal3 binding onto A549 cells (MFI) [2, 4]: inhibit the binding

rhGal1: recombinant human galectin-1
phosphorylation level of ERK [3, 5]: increased | phosphorylation level of STAT1 [3, 5]: increased | phosphorylation level of p38 [3, 5]: remained at the level of the NeuK-treated A549 control | phosphorylation level of AKT, decreased to ([3]; untreated A549 cells, 15 μg/ml): 50 % of the control level | IL-6 level in culture supernatant, increase (A549 cells; [6]): 4 fold | IL-8 level in culture supernatant, increase (A549 cells; [6]): 5 fold | IL-15 level in culture supernatant, increase (A549 cells; [6]): 25 fold | extracellular cytokine levels (A549 cells): the levels of IFNγ, IL-6, IL-8, and IL-10 increased | SOCS1 expression (SOCS1; A549 cells pre-treated with NeuK): returned to the control levels | SOCS1 expression, decrease (SOCS1; untreated A549 cells): 20-30% | RIG1 expression, increase (RIG1; NeuK-pretreated A549 cells, 15 μg/ml): about 12 fold | RIG1 expression, decreased to (RIG1; exposure alone, A549 cells, 15 μg/ml): about 50 % of the unexposed control

rhGal3: recombinant human galectin-3
SOCS expression (SOCS1, SOCS3, SOCS4) ([1]; 0~30 μg/ml rhGal3, 1 hour, FIG. 16): suppress SOCS expression in dose-dependent manner | phosphorylation level of AKT [3, 7]: up to 4 fold | phosphorylation level of ERK [3, 7]: increased | phosphorylation level of STAT1 [3, 7]: increased | phosphorylation level of p38 [3, 7]: remained unchanged | phosphorylation of p38, decrease ([3]; NeuK-treated A549 cells compared with effect on untreated cells): more than 50% | phosphorylation level of AKT [3, 5]: 1.5 fold | phosphorylation level of ERK [3, 5]: 3 fold | IL-1β, IL-10 and IL-12 levels in culture supernatant (A549 cells; [6]): had no effect | IL-6 level in culture supernatant, increase (A549 cells; [6]): 8 fold | IL-8 level in culture supernatant, increase (A549 cells; [6]): 15 fold | IL-15 level in culture supernatant, increase (A549 cells; [6]): 20 fold | extracellular cytokine levels (A549 cells): increased levels of IFNγ, TNFα, IL-10, IL-6, and IL-8 | SOCS1 expression, downregulated (SOCS1; untreated or NeuK-treated A549 cells): 60-70 % of the control levels | RIG1 expression, downregulated to (RIG1; NeuK treatment followed by exposure, 15 μg/ml): about 20 % of the unexposed controls | RIG1 expression, increase (RIG1; treatment alone, A549 cells): about 4 fold
